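Protocol summary: plate cells (96-well), add compound at 5 concentrations, incubate 48 h, interpolate endpoints linearly. GI50: concentration for 50% inhibition of growth.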 Activity calls are given as the source filed them. Rule as the data show it: active = GI50 up to about 1.1 µM and inactive = higher. Where a SMILES comes first, the peptide text is derived from it. The star is where a group is joined. Cbz = O=C(OCc1ccccc1)*
Tests used:
Assay in all cases: NCI tumour cell line growth inhibition, 48 h
UACC-257 = test system: UACC-257
RXF 393 = test system: RXF 393
UACC-62 = test system: UACC-62
NCI-H460 = test system: NCI-H460
OVCAR-5 = test system: OVCAR-5
K562 = test system: K562
LOX IMVI = test system: LOX IMVI
SF-539 = test system: SF-539
HOP-62 = test system: HOP-62
KM12 = test system: KM12
MCF7 = test system: MCF7
MDA-N = test system: MDA-N
SK-MEL-28 = test system: SK-MEL-28
A549 = test system: A549
MOLT-4 = test system: MOLT-4
ACHN = test system: ACHN
HL-60 = test system: HL-60
RPMI-8226 = test system: RPMI-8226
COLO 205 = test system: COLO 205
TK-10 = test system: TK-10
HCC 2998 = test system: HCC 2998
SNB-75 = test system: SNB-75
MDA-MB-435 = test system: MDA-MB-435
NCI/ADR-RES = test system: NCI/ADR-RES
NCI-H522 = test system: NCI-H522
UO-31 = test system: UO-31
SF-268 = test system: SF-268
HT-29 = test system: HT-29
SK-MEL-5 = test system: SK-MEL-5
SW-620 = test system: SW-620
SK-MEL-2 = test system: SK-MEL-2
SNB-19 = test system: SNB-19
NCI-H23 = test system: NCI-H23
SK-OV-3 = test system: SK-OV-3
SR = test system: SR
U-251 = test system: U-251
DU-145 = test system: DU-145
HCT-116 = test system: HCT-116
M14 = test system: M14
T47D = test system: T47D
786-0 = test system: 786-0
SN12C = test system: SN12C
PC-3 = test system: PC-3
SF-295 = test system: SF-295
NCI-H226 = test system: NCI-H226
BT-549 = test system: BT-549
IGROV-1 = test system: IGROV-1
CAKI-1 = test system: CAKI-1
OVCAR-8 = test system: OVCAR-8
OVCAR-3 = test system: OVCAR-3
EKVX = test system: EKVX
OVCAR-4 = test system: OVCAR-4
CCRF-CEM = test system: CCRF-CEM
HCT-15 = test system: HCT-15
A498 = test system: A498
HOP-92 = test system: HOP-92
Malme-3M = test system: Malme-3M
Hs-578T = test system: Hs-578T
MDA-MB-231 = test system: MDA-MB-231

In the case of `O=C1Nc2ccccc2C(=O)O/C(Cc2ccccc2)=N\c2ccccc21`, the GI50 (UACC-257) was 54.6 µM (inactive), the GI50 (RXF 393) was > 100 µM (inactive) and the GI50 (UACC-62) was > 100 µM (inactive). The GI50 (NCI-H460) was > 100 µM (inactive), the GI50 (OVCAR-5) was > 100 µM (inactive) and the GI50 (K562) was > 100 µM (inactive). The GI50 (LOX IMVI) was > 100 µM (inactive), the GI50 (SF-539) was > 100 µM (inactive) and the GI50 (HOP-62) was > 100 µM (inactive). For the same compound, the GI50 (KM12) was > 100 µM (inactive), the GI50 (MCF7) was > 100 µM (inactive) and the GI50 (MDA-N) was > 100 µM (inactive). For the same compound, the GI50 (SK-MEL-28) was > 100 µM (inactive), the GI50 (A549) was > 100 µM (inactive) and the GI50 (MOLT-4) was > 100 µM (inactive). For the same compound, the GI50 (ACHN) was > 100 µM (inactive), the GI50 (HL-60) was > 100 µM (inactive) and the GI50 (RPMI-8226) was > 100 µM (inactive). The GI50 (COLO 205) was > 100 µM (inactive), the GI50 (TK-10) was > 100 µM (inactive) and the GI50 (HCC 2998) was 82.8 µM (inactive). The GI50 (SNB-75) was 25.9 µM (inactive), the GI50 (MDA-MB-435) was > 100 µM (inactive) and the GI50 (NCI/ADR-RES) was > 100 µM (inactive). The GI50 (NCI-H522) was > 100 µM (inactive), the GI50 (UO-31) was > 100 µM (inactive) and the GI50 (SF-268) was > 100 µM (inactive). The GI50 (HT-29) was > 100 µM (inactive), the GI50 (SK-MEL-5) was > 100 µM (inactive) and the GI50 (SW-620) was > 100 µM (inactive). For the same compound, the GI50 (SK-MEL-2) was > 100 µM (inactive), the GI50 (SNB-19) was > 100 µM (inactive) and the GI50 (NCI-H23) was > 100 µM (inactive). For the same compound, the GI50 (SK-OV-3) was > 100 µM (inactive), the GI50 (SR) was > 100 µM (inactive) and the GI50 (U-251) was > 100 µM (inactive). The GI50 (DU-145) was > 100 µM (inactive), the GI50 (HCT-116) was > 100 µM (inactive) and the GI50 (M14) was > 100 µM (inactive). The GI50 (T47D) was > 100 µM (inactive), the GI50 (786-0) was > 100 µM (inactive) and the GI50 (SN12C) was > 100 µM (inactive). For the same compound, the GI50 (PC-3) was > 100 µM (inactive), the GI50 (SF-295) was > 100 µM (inactive) and the GI50 (NCI-H226) was > 100 µM (inactive). For the same compound, the GI50 (BT-549) was > 100 µM (inactive), the GI50 (IGROV-1) was > 100 µM (inactive) and the GI50 (CAKI-1) was > 100 µM (inactive). The GI50 (OVCAR-8) was > 100 µM (inactive), the GI50 (OVCAR-3) was > 100 µM (inactive) and the GI50 (EKVX) was > 100 µM (inactive). For the same compound, the GI50 (OVCAR-4) was > 100 µM (inactive), the GI50 (CCRF-CEM) was 36.1 µM (inactive) and the GI50 (HCT-15) was greater than 100 µM.
In the case of `COc1cc([N+](=O)[O-])ccc1N1C(=O)C2c3[nH]c4ccccc4c3C3CCC(C(C)(C)C)CC3C2C1=O` (centres undefined), the GI50 (UACC-257) was 76.4 µM (inactive), the GI50 (UACC-62) was 19.6 µM (inactive) and the GI50 (NCI-H460) was 18.9 µM (inactive). The GI50 (OVCAR-5) was 80.5 µM (inactive), the GI50 (LOX IMVI) was 18.5 µM (inactive) and the GI50 (SF-539) was 62.8 µM (inactive). The GI50 (HOP-62) was 7.43 µM (inactive), the GI50 (KM12) was > 100 µM (inactive) and the GI50 (MCF7) was > 100 µM (inactive). The GI50 (MDA-N) was 40.6 µM (inactive), the GI50 (SK-MEL-28) was 9.12 µM (inactive) and the GI50 (A549) was > 100 µM (inactive). The GI50 (MOLT-4) was > 100 µM (inactive), the GI50 (ACHN) was > 100 µM (inactive) and the GI50 (HL-60) was > 100 µM (inactive). The GI50 (RPMI-8226) was > 100 µM (inactive), the GI50 (A498) was > 100 µM (inactive) and the GI50 (COLO 205) was > 100 µM (inactive). The GI50 (TK-10) was > 100 µM (inactive), the GI50 (HOP-92) was 22 µM (inactive) and the GI50 (HCC 2998) was > 100 µM (inactive). For the same compound, the GI50 (Malme-3M) was > 100 µM (inactive), the GI50 (MDA-MB-435) was 17.4 µM (inactive) and the GI50 (Hs-578T) was 5.6 µM (inactive). The GI50 (NCI/ADR-RES) was 22.3 µM (inactive), the GI50 (NCI-H522) was 42.4 µM (inactive) and the GI50 (UO-31) was > 100 µM (inactive). For the same compound, the GI50 (HT-29) was 88.9 µM (inactive), the GI50 (SK-MEL-5) was 40.9 µM (inactive) and the GI50 (SW-620) was > 100 µM (inactive). For the same compound, the GI50 (SK-MEL-2) was 94.8 µM (inactive), the GI50 (NCI-H23) was 31 µM (inactive) and the GI50 (SK-OV-3) was > 100 µM (inactive). The GI50 (SR) was > 100 µM (inactive), the GI50 (U-251) was 9.79 µM (inactive) and the GI50 (MDA-MB-231) was 14.7 µM (inactive). For the same compound, the GI50 (DU-145) was > 100 µM (inactive), the GI50 (HCT-116) was 44.5 µM (inactive) and the GI50 (M14) was 13.6 µM (inactive). For the same compound, the GI50 (SN12C) was 64.4 µM (inactive), the GI50 (PC-3) was 38.6 µM (inactive) and the GI50 (NCI-H226) was > 100 µM (inactive). For the same compound, the GI50 (BT-549) was 32 µM (inactive), the GI50 (IGROV-1) was > 100 µM (inactive) and the GI50 (CAKI-1) was 2.04 µM (inactive). For the same compound, the GI50 (OVCAR-8) was 29 µM (inactive), the GI50 (OVCAR-3) was > 100 µM (inactive) and the GI50 (EKVX) was 33.4 µM (inactive). The GI50 (OVCAR-4) was 17.2 µM (inactive), the GI50 (CCRF-CEM) was 21.8 µM (inactive) and the GI50 (HCT-15) was greater than 100 µM.
In the case of `CCOC(=O)CCC(NC(=O)C(CC(=O)OC)NC(=O)OCc1ccccc1)C(=O)NC(CC(=O)OC)C(=O)NC(CCC(=O)OCC)C(=O)NC(CC(=O)OC)C(=O)NC(CCC(=O)OCC)C(=O)NC(CC(=O)OCC)C(=O)OCC` (centres undefined) (Cbz-D(OMe)E(OEt)D(OMe)E(OEt)D(OMe)E(OEt)D(OEt)-OEt; configuration not given here), the GI50 (UACC-257) was > 100 µM (inactive), the GI50 (UACC-62) was > 100 µM (inactive) and the GI50 (NCI-H460) was > 100 µM (inactive). For the same compound, the GI50 (OVCAR-5) was > 100 µM (inactive), the GI50 (K562) was > 100 µM (inactive) and the GI50 (LOX IMVI) was > 100 µM (inactive). The GI50 (HOP-62) was > 100 µM (inactive), the GI50 (MCF7) was > 100 µM (inactive) and the GI50 (MDA-N) was > 100 µM (inactive). The GI50 (A549) was > 100 µM (inactive), the GI50 (MOLT-4) was > 100 µM (inactive) and the GI50 (ACHN) was > 100 µM (inactive). For the same compound, the GI50 (HL-60) was > 100 µM (inactive), the GI50 (RPMI-8226) was > 100 µM (inactive) and the GI50 (A498) was 98.9 µM (inactive). The GI50 (TK-10) was > 100 µM (inactive), the GI50 (HCC 2998) was > 100 µM (inactive) and the GI50 (Malme-3M) was > 100 µM (inactive). The GI50 (MDA-MB-435) was > 100 µM (inactive), the GI50 (NCI-H522) was > 100 µM (inactive) and the GI50 (UO-31) was > 100 µM (inactive). For the same compound, the GI50 (HT-29) was > 100 µM (inactive), the GI50 (SK-MEL-5) was > 100 µM (inactive) and the GI50 (SW-620) was > 100 µM (inactive). The GI50 (SK-MEL-2) was > 100 µM (inactive), the GI50 (SNB-19) was > 100 µM (inactive) and the GI50 (NCI-H23) was > 100 µM (inactive). The GI50 (SR) was > 100 µM (inactive), the GI50 (U-251) was > 100 µM (inactive) and the GI50 (MDA-MB-231) was > 100 µM (inactive). For the same compound, the GI50 (DU-145) was > 100 µM (inactive), the GI50 (HCT-116) was > 100 µM (inactive) and the GI50 (T47D) was > 100 µM (inactive). For the same compound, the GI50 (786-0) was > 100 µM (inactive), the GI50 (SN12C) was > 100 µM (inactive) and the GI50 (PC-3) was > 100 µM (inactive). The GI50 (NCI-H226) was > 100 µM (inactive), the GI50 (BT-549) was > 100 µM (inactive) and the GI50 (IGROV-1) was > 100 µM (inactive). For the same compound, the GI50 (OVCAR-8) was > 100 µM (inactive), the GI50 (OVCAR-3) was > 100 µM (inactive) and the GI50 (OVCAR-4) was > 100 µM (inactive). For the same compound, the GI50 (CCRF-CEM) was > 100 µM (inactive) and the GI50 (HCT-15) was greater than 100 µM.

Reference: ChEMBL document CHEMBL1201862, “PubChem BioAssay data set” (2004)
